Laboratory results from US20250333394A1, “Tiparp Inhibitor Compounds” (AbbVie Inc., priority 2024, published 2025).

Columns and labels:
TIPARP GST-(TEV) = TIPARP GST-(TEV) (Homo sapiens (Human), UniProt Q7Z3E1); experiment: TR-FRET binding assay, TIPARP
In short: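 N-terminal GST-TEV-tagged human TIPARP with protein/probe mix in 50 mM Tris-HCl pH 8.0, 5 mM MgCl2, 5 µM ZnCl2, 1 mM DTT, 0.15% BSA, 0.01% Triton X-100, plus 1 nM Tb-anti-GST antibody. Compounds at 30 µM to 0.5 nM final, 3-fold steps. TR-FRET ratio read after 2 h at ambient temperature.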

DLD-1 parent cells = experiment: CellTiter-Glo DLD-1 parent cell assay; format: cell-based; details: Homo sapiens, 144 h, 6 days, read-out: DLD-1 CTG EC50
In short: (§1)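 DLD-1 parent (500 cells/well) and DLD-1 BRCA2 (−/−) (1200 cells/well) cells in RPMI 1640 with 10% FBS exposed to compounds at 30 μM to 0.5 nM (3-fold dilutions) for 6 days at 37° C. Viability read by CellTiter-Glo luminescence on day 7.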

MC-38 (Ker) tumors = experiment: MC-38 (Ker) syngeneic model efficacy; format: in vivo, mouse; details: PO once daily up to 21 days, C57BL/6 mice
Method: The murine cell line MC-38 derived from C57BL6 murine colon adenocarcinoma cells was obtained from Kerafast (Boston, MA, USA). A suspension of 2.5×10^5 cells in culture medium mixed with Matrigel® (Corning Life Sciences, Lowell, MA, USA; 1:1, volume:volume) was injected subcutaneously in the right hind flank of female C57BL/6 mice to generate tumor formation. Treatment started when the size of the flank tumors was approximately 120 mm^3. Vehicle and four different doses of Example 1 were administered once daily to each of eight mice at each dose level for up to 21 days. Each administration consisted of a single 0.2 mL oral (PO) dose in a vehicle formulation (10% ethanol, 30% PEG300, and 60% PHOSAL® 50 PG).

DLD-1 BRCA2 (−/−) cells = experiment: CellTiter-Glo DLD-1 BRCA2 (−/−) cell assay for PARP1/2 inhibition; format: cell-based; details: Homo sapiens, 144 h, 6 days, read-out: DLD-1 BRCA2 (−/−) CTG EC50
In short: as §1

Chain of TIPARP GST-(TEV) (Q7Z3E1 441-657): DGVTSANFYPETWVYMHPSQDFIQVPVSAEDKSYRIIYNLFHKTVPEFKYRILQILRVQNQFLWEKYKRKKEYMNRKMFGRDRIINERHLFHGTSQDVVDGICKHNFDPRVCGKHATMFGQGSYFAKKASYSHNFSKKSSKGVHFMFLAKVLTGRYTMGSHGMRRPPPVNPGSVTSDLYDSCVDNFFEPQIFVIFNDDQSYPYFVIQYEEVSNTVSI

SMILES: C[C@@H]1CN(c2ncc(C(F)(F)F)cn2)CCN1C(=O)[C@H]1C[C@@H](c2c[nH]c(=O)c(C(F)(F)F)c2)C1 [Example 1, 5-[(1S,3s)-3-{(2R)-2-methyl-4-[5-(trifluoromethyl)pyrimidin-2-yl]piperazine-1-carbonyl}cyclobutyl]-3-(trifluoromethyl)pyridin-2(1H)-one]
- IC50 (TIPARP GST-(TEV); TR-FRET, Probe 1, 2 hours incubation): 2.4 nM
- PARP1/TIPARP IC50 Ratio (TIPARP GST-(TEV); ratio of PARP1 GST IC50 to TIPARP GST-(TEV) IC50): 1140
- EC50 (DLD-1 parent cells): > 30 µM
- maximum tumor growth inhibition (TGIMax) (MC-38 (Ker) tumors; Dose A): 46%
- maximum tumor growth inhibition (TGIMax) (MC-38 (Ker) tumors; Dose B): 77%
- maximum tumor growth inhibition (TGIMax) (MC-38 (Ker) tumors; Dose C): 98%
- maximum tumor growth inhibition (TGIMax) (MC-38 (Ker) tumors; Dose D): 99%
- EC50 (DLD-1 BRCA2 (−/−) cells): 18.5 µM
